The values below are quoted from earlier work in patent publication US20090012008A1, “Pharmaceutical Composition for Photodynamic Therapy and a Method for Treating Oncological Diseases by Using Said Composition” (priority 2005, published 2009).

Series [1] deals with tumor cells of the HeLa S3 line. Conditions: HeLa S3, in vitro.

As to `c12c3c4c5c1c1c6c7c2c2c8c3c3c9c4c4c%10c5c5c1c1c6c6c%11c7c2c2c7c8c3c3c8c9c4c4c9c%10c5c5c1c1c6c6c%11c2c2c7c3c3c8c4c4c9c5c1c1c6c2c3c41` [fullerene C60], the “effect on viability and proliferation rate” value in the series with fibroblasts and in the series on keratinocytes was “no effect” each time.
On to fullerocyclopentane, for which the cytotoxic activity entry in series [1] is given as “manifest only upon irradiation with light”.
